Key:
[1] = system: ET receptors (ETA and ETB); details: cited from earlier work
[2] = Drug-drug interaction observations
[3] = system: CYP3A4; test: CYP3A4 induction in human hepatocytes; format: in vitro ADME
[4] = cited from earlier work
[5] = target: T1, human PXR (Homo sapiens, UniProt O75469); test: Activation of human PXR; format: cell-based
T1 sequence (O75469 1-434): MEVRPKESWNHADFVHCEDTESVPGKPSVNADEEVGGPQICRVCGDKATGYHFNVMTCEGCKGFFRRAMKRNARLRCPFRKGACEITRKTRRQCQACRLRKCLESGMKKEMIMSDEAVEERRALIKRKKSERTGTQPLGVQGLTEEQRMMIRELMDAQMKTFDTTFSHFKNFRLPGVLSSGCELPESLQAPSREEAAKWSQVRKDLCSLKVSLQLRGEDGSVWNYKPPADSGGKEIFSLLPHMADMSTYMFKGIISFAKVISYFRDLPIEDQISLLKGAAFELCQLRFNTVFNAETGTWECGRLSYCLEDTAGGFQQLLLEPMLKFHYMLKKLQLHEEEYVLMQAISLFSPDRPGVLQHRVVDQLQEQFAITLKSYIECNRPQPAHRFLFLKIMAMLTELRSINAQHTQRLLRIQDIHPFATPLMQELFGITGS

[6] = Effect of macitentan on decrease in hemoglobin concentration, pooled Phase I studies, Emax model; format: in vivo, human; details: healthy volunteers
Excerpt: Hemoglobin measurements were pooled from 3 Phase I clinical studies in healthy volunteers:
Study AC-055-102: Investigation of the PK, PD, safety and tolerability of macitentan in male subjects (the study protocol is described in the following publication: Sidharta et al., Safety, tolerability, pharmacokinetics, and pharmacodynamics of macitentan, an endothelin receptor antagonist, in an ascending multiple-dose study in healthy subjects. J. Clin. Pharmacol. (2013), 53(11),1131-1138)
Study AC-055-116: Investigation of the PK, PD, safety and tolerability of macitentan in male Japanese subjects (the study protocol is described in the following publication: Yokoyama et al., Tolerability, Safety, Pharmacokinetics, and Pharmacodynamics of Macitentan, a New Endothelin Receptor Antagonist, in Healthy Japanese Male Subjects. Rinsho yakuri/Japanese Journal of Clinical Pharmacology and Therapeutics (2016), 47, 143-150) […]
Hemoglobin concentrations measured in the morning of Day 11 of macitentan treatment and at baseline on Day −1 were used in the analysis. […]

[7] = system: plasma ET-1; details: healthy human subjects, 1, 3, 10 and 30 mg; cited from earlier work
[8] = system: rats; details: cited from earlier work
[9] = target: T2, BCRP transporters (Homo sapiens, UniProt Q9UNQ0); test: Effect on pharmacokinetics of rosuvastatin (BCRP transporters); format: in vivo; details: macitentan 10 mg per day o.d.
T2 construct: BCRP is an efflux pump located in the gut, liver canalicular membrane, and kidney; from tissue; host or cells: gut, liver, kidney of dosed subjects (in vivo)
T2 sequence (Q9UNQ0 1-655): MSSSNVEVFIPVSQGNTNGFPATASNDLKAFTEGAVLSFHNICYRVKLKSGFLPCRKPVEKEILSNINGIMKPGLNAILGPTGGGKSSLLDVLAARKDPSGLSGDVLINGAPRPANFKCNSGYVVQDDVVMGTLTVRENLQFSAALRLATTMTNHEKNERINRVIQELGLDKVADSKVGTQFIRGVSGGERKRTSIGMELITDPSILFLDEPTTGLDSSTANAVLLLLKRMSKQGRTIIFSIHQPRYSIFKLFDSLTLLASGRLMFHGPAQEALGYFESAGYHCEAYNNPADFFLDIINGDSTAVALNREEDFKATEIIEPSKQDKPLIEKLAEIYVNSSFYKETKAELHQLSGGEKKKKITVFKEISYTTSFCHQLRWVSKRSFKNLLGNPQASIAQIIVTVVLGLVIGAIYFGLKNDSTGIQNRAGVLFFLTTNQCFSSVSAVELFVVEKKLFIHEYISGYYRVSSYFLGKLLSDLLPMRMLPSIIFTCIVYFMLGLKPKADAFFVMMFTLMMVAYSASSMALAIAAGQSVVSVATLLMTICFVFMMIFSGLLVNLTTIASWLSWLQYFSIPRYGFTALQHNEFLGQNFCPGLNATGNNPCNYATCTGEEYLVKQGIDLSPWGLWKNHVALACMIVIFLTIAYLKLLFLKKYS
Excerpt: BCRP is an efflux pump located in the gut, liver canalicular membrane, and kidney, and is exposed to intracellular drug concentrations in the liver and the kidney.

CYP3A4 mRNA and enzyme activity [3]	EC50 [5] [µM]	dose at which effect on hemoglobin decrease plateaus ([6]; Day 11 vs baseline Day -1) [mg]	maximum effect on hemoglobin decrease (Emax) ([6]; Day 11 vs baseline Day -1, nonlinear regression)	effect on the pharmacokinetics of 1 mg rosuvastatin [9]	Compound	affinity for the ET receptors relative to parent compound [1]	Drug-Drug Interaction [2]	time to peak plasma concentration ([4]; after the first dose of macitentan)	half-life in humans ([4]; humans)	plasma concentrations relative to macitentan ([4]; humans)	time to steady state ([4]; humans, repeated administration)	absorption into the plasma ([4]; humans)	plasma ET-1 concentrations at steady-state [7]	dose of maximal or near-maximal effect in rats ([8]; EMA Assessment Report) [mg/kg]	maximal effective dose in rats ([8]; Iglarz 2014, Kunita-Takanezawa 2014) [mg/kg]
concentration-dependent increases	7.2 to 8.7	–	–	–	NS(=O)(=O)Nc1ncnc(OCCOc2ncc(Br)cn2)c1-c1ccc(Br)cc1 [ACT-132577]	lower affinity	No Drug-Drug Interaction has been observed	about 30 hours	approximately 48 hours	higher plasma concentrations than macitentan	–	–	–	–	–
concentration-dependent increases	1.1 to 1.2	10	around 1.23 g/dL	has not shown any effect	CCCNS(=O)(=O)Nc1ncnc(OCCOc2ncc(Br)cn2)c1-c1ccc(Br)cc1 [macitentan, propylsulfamic acid [5-(4-bromo-phenyl)-6-[2-(5-bromo-pyrimidin-2-yloxy)-ethoxy]-pyrimidin-4-yl]-amide]	–	No Drug-Drug Interaction has been observed	–	about 16 hours	–	steady state is reached by the third day of administration	absorbed slowly	dose-dependent increase, with no further increase beyond the 10 mg oral dose	10	30

Reference: patent publication US11464777B2, “Pharmaceutical composition for the treatment of pulmonary arterial hypertension” (Actelion Pharmaceuticals Ltd, priority 2018, dated 2022)
